Measured values from patent US20220000911A1, “COMBINATION OF GOLD COMPLEXES WITH OLAPARIB OR OTHER PARP1/2 INHIBITORS FOR USE IN THE TREATMENT OF CANCER RESISTANT TO SAID PARP1/2 INHIBITORS” (Varsity Pharmaceuticals Limited, priority 2020, published 2022).

Tests used:
[1] = tested on: olaparib resistant A2780 ovarian cancer cells; assay: CellTiter Glo proliferation inhibition, olaparib resistant A2780 cells, single agents; assay type: cell-based
Procedure: A2780 ovarian cancer cells (wild-type “WT”) were cultured in RPMI 1640 Medium with 10% Fetal Bovine Serum (FBS).
To obtain cells resistant to olaparib, the cells were cultured in cell culture medium (RPMI 1640 Medium with 10% FBS) supplemented with 20 μM olaparib for one month in order to generate A2780 cells resistant to olaparib (“R”). After a month the cells were continuously cultured in the cell culture medium (RPMI 1640 Medium with 10% FBS) supplemented with 10 μM olaparib prior to use and for up to two months to maintain the resistance.
The cells were harvested from a flask into cell culture medium (RPMI 1640 Medium with 10% FBS) and then counted. The cells were diluted with culture medium and 40 μL of cell suspension (1000 cells/well) was added into each well of a 384-well cell culture plate. The plate was covered with a lid and left at room temperature without shaking for 30 minutes. The plate was then transferred to an incubator at 37° C. and 5% CO2 and left overnight.
Test compounds were dissolved at a concentration of 30 mM in DMSO to create a stock solution. 45 μL of the stock solution was transferred to a 384 pp-plate. […] The plate was then spun at room temperature at 1,000 RPM for 1 minute. 40 nL of the diluted compound was then transferred from the compound source plate into the cell plate. The cell plate was then covered with a lid and placed in an incubator at 37° C. and 5% CO2 and left for 120 hours. 72 hours after treatment with the compound detection was conducted as discussed below.
CellTiter Glo® reagents were thawed and equilibrated to room temperature. The cell plate was then removed from the incubator and equilibrated at room temperature for 15 minutes. 30 μL of the CellTiter Glo® reagents were then added into each well (at 1:1 to culture medium). The contents was mixed for 2 minutes on an orbital shaker to induce cell lysis and then the plates were allowed to incubate at room temperature for 30 minutes. Luminescence was then measured on an Envision reader (Perkin Elmer).
The inhibition activity was calculated using the following formula:
Inhibition (%)=100×(Lumvehicle−Lumsample)/(Lumvehicle−Lumblank),
where Lumvehicle is the luminescence of cells treated with 0.1% DMSO and Lumblank is cells in the culture medium.
The IC50 was calculated by fitting the curve using Xlfit (v5.3.1.3), equation 201: […]

[2] = tested on: wildtype A2780 ovarian cancer cells; assay: CellTiter Glo proliferation inhibition, wild-type A2780 cells; assay type: cell-based
Procedure: The A2780 cell line is an ovarian cancer cell line that was established from an ovarian endometroid adenocarcinoma tumour. […] It is commonly used as a model to observe the effects of, and test the potency of various chemicals, methods of delivery and treatments for ovarian cancer. […] The cells were diluted with culture medium and 40 μL of cell suspension (1000 cells/well) was added into each well of a 384-well cell culture plate. The plate was covered with a lid and left at room temperature without shaking for 30 minutes. The plate was then transferred to an incubator at 37° C. and 5% CO2 and left overnight. Test compounds were dissolved at a concentration of 30 mM in DMSO to create a stock solution. 45 μL of the stock solution was transferred to a 384 pp-plate. […] The plate was then spun at room temperature at 1,000 RPM for 1 minute. 40 nL of the diluted compound was then transferred from the compound source plate into the cell plate. The cell plate was then covered with a lid and placed in an incubator at 37° C. and 5% CO2 and left for 120 hours. 72 hours after treatment with the compound detection was conducted as discussed below. CellTiter Glo® reagents were thawed and equilibrated to room temperature. The cell plate was then removed from the incubator and equilibrated at room temperature for 15 minutes. 30 μL of the CellTiter Glo® reagents were then added into each well (at 1:1 to culture medium). The contents was mixed for 2 minutes on an orbital shaker to induce cell lysis and then the plates were allowed to incubate at room temperature for 30 minutes. Luminescence was then measured on an Envision reader (Perkin Elmer). The inhibition activity was calculated using the following formula: […]

[3] = concentration range 0.06 nM to 30,000 nM

For NC(=O)c1cccc2cn(-c3ccc([C@@H]4CCCNC4)cc3)nc12 [Niraparib, niraparib], the IC50 ([1]; Homo sapiens, A2780) was 17.3 µM, the inhibition at 60 pM ([1]; Homo sapiens, olaparib resistant A2780, test conc. 0.06 nM, read-out: Mean Inhibition (n = 3)) was -1.98% and the inhibition at 0.00017 µM ([1]; Homo sapiens, olaparib resistant A2780, test conc. 0.17 nM, read-out: Mean Inhibition (n = 3)) was 0.32%. For the same molecule, the inhibition at 0.00051 µM ([1]; Homo sapiens, olaparib resistant A2780, test conc. 0.51 nM, read-out: Mean Inhibition (n = 3)) was -2.36%, the inhibition at 0.00152 µM ([1]; Homo sapiens, olaparib resistant A2780, test conc. 1.52 nM, read-out: Mean Inhibition (n = 3)) was 2.95% and the inhibition at 0.00457 µM ([1]; Homo sapiens, olaparib resistant A2780, test conc. 4.57 nM, read-out: Mean Inhibition (n = 3)) was -0.19%. The inhibition at 0.01372 µM ([1]; Homo sapiens, olaparib resistant A2780, test conc. 13.72 nM, read-out: Mean Inhibition (n = 3)) was -1.43%, the inhibition at 0.04115 µM ([1]; Homo sapiens, olaparib resistant A2780, test conc. 41.15 nM, read-out: Mean Inhibition (n = 3)) was 0.1% and the inhibition at 0.12346 µM ([1]; Homo sapiens, olaparib resistant A2780, test conc. 123.46 nM, read-out: Mean Inhibition (n = 3)) was -0.8%. For the same molecule, the inhibition at 0.37037 µM ([1]; Homo sapiens, olaparib resistant A2780, test conc. 370.37 nM, read-out: Mean Inhibition (n = 3)) was -0.56%, the inhibition at 10 µM ([1]; Homo sapiens, olaparib resistant A2780, test conc. 10,000 nM, read-out: Mean Inhibition (n = 3)) was 18.9% and the inhibition at 30 µM ([1]; Homo sapiens, olaparib resistant A2780, test conc. 30,000 nM, read-out: Mean Inhibition (n = 3)) was 43.9%. For the same molecule, the “Maximum inhibition observed in olaparib resistant A2780 cells” value [1, 3] was 47%, the “Mean Inhibition (n = 3)” value ([1]; olaparib resistant A2780, test conc. 1,111.11 nM) was −1.37% and the “Mean Inhibition (n = 3)” value ([1]; olaparib resistant A2780, test conc. 3,333.33 nM) was 5.54%. The “Resistance of the olaparib resistant cells to other PARPis” value ([1]; olaparib resistant A2780 cells) was “resistant”, the IC50 ([2]; Homo sapiens, A2780) was 2.09 µM and the inhibition at 60 pM ([2]; Homo sapiens, wildtype A2780, test conc. 0.06 nM, read-out: Mean Inhibition (n = 3)) was 0.39%. For the same molecule, the inhibition at 0.00017 µM ([2]; Homo sapiens, wildtype A2780, test conc. 0.17 nM, read-out: Mean Inhibition (n = 3)) was -3.72%, the inhibition at 0.00051 µM ([2]; Homo sapiens, wildtype A2780, test conc. 0.51 nM, read-out: Mean Inhibition (n = 3)) was -0.34% and the inhibition at 0.00152 µM ([2]; Homo sapiens, wildtype A2780, test conc. 1.52 nM, read-out: Mean Inhibition (n = 3)) was 0.03%. The inhibition at 0.00457 µM ([2]; Homo sapiens, wildtype A2780, test conc. 4.57 nM, read-out: Mean Inhibition (n = 3)) was 0.18%, the inhibition at 0.01372 µM ([2]; Homo sapiens, wildtype A2780, test conc. 13.72 nM, read-out: Mean Inhibition (n = 3)) was 0.97% and the inhibition at 0.04115 µM ([2]; Homo sapiens, wildtype A2780, test conc. 41.15 nM, read-out: Mean Inhibition (n = 3)) was -0.46%. It also gave an inhibition at 0.12346 µM ([2]; Homo sapiens, wildtype A2780, test conc. 123.46 nM, read-out: Mean Inhibition (n = 3)) of 3.18%, an inhibition at 0.37037 µM ([2]; Homo sapiens, wildtype A2780, test conc. 370.37 nM, read-out: Mean Inhibition (n = 3)) of 12.3% and an inhibition at 10 µM ([2]; Homo sapiens, wildtype A2780, test conc. 10,000 nM, read-out: Mean Inhibition (n = 3)) of 66.2%. The inhibition at 30 µM ([2]; Homo sapiens, wildtype A2780, test conc. 30,000 nM, read-out: Mean Inhibition (n = 3)) was 73.3%, the “Maximum inhibition observed in wild-type A2780 cells” value [2, 3] was 75% and the “Mean Inhibition (n = 3)” value ([2]; wildtype A2780, test conc. 1,111.11 nM) was 25.03%. The “Mean Inhibition (n = 3)” value ([2]; wildtype A2780, test conc. 3,333.33 nM) was 48.63%.
